In PubChem BioAssay (NCI):
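Cultured in 96-well plates, cells were exposed to test compound for 48 hours across five concentrations. GI50 marks 50% less growth. TGI: total growth inhibition.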

Assays:
Experiment in all cases: growth of human tumour cells (NCI), 48 h; in the data active = GI50 below about 0.43 µM; inactive = the rest
NCI-H522 lung = tested on: NCI-H522 lung
HCT-15 colon = tested on: HCT-15 colon
CCRF-CEM leukemia = tested on: CCRF-CEM leukemia
K-562 leukemia = tested on: K-562 leukemia
SF-295 CNS = tested on: SF-295 CNS
NCI-H460 lung = tested on: NCI-H460 lung
UO-31 renal = tested on: UO-31 renal
MOLT-4 leukemia = tested on: MOLT-4 leukemia
HCC-2998 colon = tested on: HCC-2998 colon
HT29 colon = tested on: HT29 colon
SF-268 CNS = tested on: SF-268 CNS
A549 NSCLC = tested on: A549 NSCLC
U251 CNS = tested on: U251 CNS
SF-539 CNS = tested on: SF-539 CNS
NCI/ADR-RES ovarian = tested on: NCI/ADR-RES ovarian
SN12C renal = tested on: SN12C renal
HOP-62 NSCLC = tested on: HOP-62 NSCLC
SK-OV-3 ovarian = tested on: SK-OV-3 ovarian
EKVX NSCLC = tested on: EKVX NSCLC
HCT-116 colon = tested on: HCT-116 colon
SR leukemia = tested on: SR leukemia
UACC-62 melanoma = tested on: UACC-62 melanoma
SK-MEL-28 melanoma = tested on: SK-MEL-28 melanoma
COLO 205 colon = tested on: COLO 205 colon
NCI-H23 lung = tested on: NCI-H23 lung
OVCAR-4 ovarian = tested on: OVCAR-4 ovarian
SW-620 colon = tested on: SW-620 colon
NCI-H226 lung = tested on: NCI-H226 lung
MCF7 breast = tested on: MCF7 breast
KM12 colon = tested on: KM12 colon
PC-3 prostate = tested on: PC-3 prostate
SK-MEL-5 melanoma = tested on: SK-MEL-5 melanoma
786-0 renal = tested on: 786-0 renal
MALME-3M melanoma = tested on: MALME-3M melanoma
T-47D breast = tested on: T-47D breast
OVCAR-8 ovarian = tested on: OVCAR-8 ovarian
SNB-75 CNS = tested on: SNB-75 CNS
M14 melanoma = tested on: M14 melanoma
DU-145 prostate = tested on: DU-145 prostate
SNB-19 CNS = tested on: SNB-19 CNS
IGROV1 ovarian = tested on: IGROV1 ovarian
OVCAR-5 ovarian = tested on: OVCAR-5 ovarian
CAKI-1 renal = tested on: CAKI-1 renal
LOX IMVI melanoma = tested on: LOX IMVI melanoma
ACHN renal = tested on: ACHN renal
HS 578T breast = tested on: HS 578T breast
MDA-MB-231 breast = tested on: MDA-MB-231 breast
HL-60(TB) leukemia = tested on: HL-60(TB) leukemia
RPMI-8226 leukemia = tested on: RPMI-8226 leukemia
OVCAR-3 ovarian = tested on: OVCAR-3 ovarian
BT-549 breast = tested on: BT-549 breast
RXF 393 renal = tested on: RXF 393 renal
HOP-92 NSCLC = tested on: HOP-92 NSCLC
MDA-MB-435 = tested on: MDA-MB-435
MDA-MB-468 breast = tested on: MDA-MB-468 breast
UACC-257 melanoma = tested on: UACC-257 melanoma
TK-10 renal = tested on: TK-10 renal

Cc1cc(C(NC(=O)CCCCCNc2cccc3c2C(=O)N(C2CCC(=O)CC2=O)C3=O)c2cccc(N(C)C)c2)c(O)c2ncccc12 (centres undefined)
4630 nM: TGI (UACC-62 melanoma)
1830 nM: TGI (SK-MEL-5 melanoma)
5020 nM: TGI (SK-OV-3 ovarian)
1360 nM: TGI (CCRF-CEM leukemia)
1670 nM: TGI (HL-60(TB) leukemia)
> 12600 nM: TGI (HOP-62 NSCLC)
524 nM: TGI (HOP-92 NSCLC)
inactive: GI50 (NCI-H522 lung) 1800 nM | GI50 (HCT-15 colon) 910 nM | GI50 (K-562 leukemia) 824 nM | GI50 (SF-295 CNS) 1530 nM | GI50 (NCI-H460 lung) 1140 nM | GI50 (UO-31 renal) 745 nM | GI50 (HCC-2998 colon) 941 nM | GI50 (HT29 colon) 2360 nM | GI50 (SF-268 CNS) 1410 nM | GI50 (A549 NSCLC) 2120 nM | GI50 (U251 CNS) 1390 nM | GI50 (SF-539 CNS) 1830 nM | GI50 (NCI/ADR-RES ovarian) 5440 nM | GI50 (SN12C renal) 1210 nM | GI50 (HOP-62 NSCLC) 547 nM | GI50 (SK-OV-3 ovarian) 1530 nM | GI50 (EKVX NSCLC) 1360 nM | GI50 (HCT-116 colon) 932 nM | GI50 (SR leukemia) 922 nM | GI50 (UACC-62 melanoma) 1330 nM | GI50 (SK-MEL-28 melanoma) 2060 nM | GI50 (COLO 205 colon) 1080 nM | GI50 (NCI-H23 lung) 1540 nM | GI50 (OVCAR-4 ovarian) 1480 nM | GI50 (SW-620 colon) 564 nM | GI50 (NCI-H226 lung) 782 nM | GI50 (MCF7 breast) 982 nM | GI50 (KM12 colon) 1730 nM | GI50 (SK-MEL-5 melanoma) 822 nM | GI50 (786-0 renal) 1360 nM | GI50 (T-47D breast) 739 nM | GI50 (OVCAR-8 ovarian) 555 nM | GI50 (SNB-75 CNS) 766 nM | GI50 (M14 melanoma) 585 nM | GI50 (DU-145 prostate) 3030 nM | GI50 (SNB-19 CNS) 1560 nM | GI50 (IGROV1 ovarian) 686 nM | GI50 (OVCAR-5 ovarian) 1900 nM | GI50 (CAKI-1 renal) 1140 nM | GI50 (LOX IMVI melanoma) 1200 nM | GI50 (ACHN renal) 1920 nM | GI50 (HS 578T breast) 482 nM | GI50 (RPMI-8226 leukemia) 1580 nM | GI50 (OVCAR-3 ovarian) 1230 nM | GI50 (RXF 393 renal) 1550 nM | GI50 (MDA-MB-435) 2220 nM | GI50 (UACC-257 melanoma) 2450 nM | GI50 (TK-10 renal) 2670 nM
136 nM: TGI (MDA-MB-231 breast)
30800 nM: TGI (SF-539 CNS)
> 15800 nM: TGI (NCI-H226 lung)
> 16100 nM: TGI (LOX IMVI melanoma)
930 nM: TGI (BT-549 breast)
> 58500 nM: TGI (NCI-H522 lung) | TGI (HCT-15 colon) | TGI (K-562 leukemia) | TGI (SF-295 CNS) | TGI (NCI-H460 lung) | TGI (MOLT-4 leukemia) | TGI (HT29 colon) | TGI (SF-268 CNS) | TGI (A549 NSCLC) | TGI (U251 CNS) | TGI (NCI/ADR-RES ovarian) | TGI (SN12C renal) | TGI (EKVX NSCLC) | TGI (HCT-116 colon) | TGI (SR leukemia) | TGI (SK-MEL-28 melanoma) | TGI (COLO 205 colon) | TGI (NCI-H23 lung) | TGI (OVCAR-4 ovarian) | TGI (SW-620 colon) | TGI (MCF7 breast) | TGI (KM12 colon) | TGI (PC-3 prostate) | TGI (786-0 renal) | TGI (T-47D breast) | TGI (OVCAR-8 ovarian) | TGI (SNB-75 CNS) | TGI (DU-145 prostate) | TGI (SNB-19 CNS) | TGI (OVCAR-5 ovarian) | TGI (CAKI-1 renal) | TGI (ACHN renal) | TGI (HS 578T breast) | TGI (RPMI-8226 leukemia) | TGI (OVCAR-3 ovarian) | TGI (RXF 393 renal) | TGI (MDA-MB-435) | TGI (UACC-257 melanoma) | TGI (TK-10 renal)
active: GI50 (CCRF-CEM leukemia) 26.8 nM | GI50 (MOLT-4 leukemia) 34.6 nM | GI50 (PC-3 prostate) 103 nM | GI50 (MALME-3M melanoma) 97.5 nM | GI50 (MDA-MB-231 breast) 22.2 nM | GI50 (HL-60(TB) leukemia) 19.9 nM | GI50 (BT-549 breast) 85.1 nM | GI50 (HOP-92 NSCLC) 36.5 nM | GI50 (MDA-MB-468 breast) 27.8 nM
6170 nM: TGI (IGROV1 ovarian)
> 25400 nM: TGI (UO-31 renal)
462 nM: TGI (MDA-MB-468 breast)
3760 nM: TGI (HCC-2998 colon)
3780 nM: TGI (M14 melanoma)
957 nM: TGI (MALME-3M melanoma)
